Assay results taken from patent US9765105B2, “Macrolide compound” (Pulike Biological Engineering, Inc., priority 2013, dated 2017).

Tests used:
Experiment in all cases: in vitro susceptibility, MIC by mini broth dilution
Type in all cases: cell-based
[1] = system: Staphylococcus aureus CVCC26003; settings: strain CVCC26003
Outline: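 MICs were determined by mini broth dilution under NCCLS standards in CAMHB, using revived S. aureus CVCC26003 subcultured 20 h at 35° C. Compounds were two-fold serially diluted in DMSO across 11 wells, with duplicate rows. Bacterial suspension was diluted 1:200 in medium before inoculation.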

[2] = system: Streptococcus equines CVCC556; settings: strain CVCC556
Outline: (§1)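 MICs determined by mini broth dilution following NCCLS standards, using two-fold serial dilutions of compound in DMSO across 11 gradients, in duplicate rows. Strains were revived and subcultured at 35 °C for 20 h. Bacterial suspension was diluted 1:200 in liquid medium.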

[3] = system: Pasteurella multocida CVCC399; settings: strain CVCC399
Outline: as §1

[4] = system: Actinobacillus pleuropneumoniae CVCC262; settings: strain CVCC262
Outline: as §1

[5] = system: Haemophilus parasuis
Outline: as §1

MIC values, Staphylococcus aureus CVCC26003 [1] | MIC values, Streptococcus equines CVCC556 [2] | MIC values, Pasteurella multocida CVCC399 [3] | MIC values, Actinobacillus pleuropneumoniae CVCC262 [4] | MIC values, Haemophilus parasuis [5] | SMILES
4 ug/mi | 0.25 ug/mi | 8 ug/mi | 1 ug/mi | 1 ug/mi | CCCN1C[C@H](C)[C@@H](O)[C@](C)(O)[C@@H](CC)OC(=O)[C@H](C)[C@@H](O[C@H]2C[C@@](C)(OC)[C@](O)(CNCc3cccc(OC)c3)[C@H](C)O2)[C@H](C)[C@@H](O[C@@H]2O[C@H](C)C[C@H](N(C)C)[C@H]2O)[C@](C)(O)C[C@H]1C [syzx-127]
0.25 ug/mi | 0.25 ug/mi | 1 ug/mi | 0.25 ug/mi | 0.25 ug/mi | C#CC=C(C)NC[C@]1(O)[C@H](C)O[C@@H](O[C@H]2[C@H](C)[C@@H](O[C@@H]3O[C@H](C)C[C@H](N(C)C)[C@H]3O)[C@](C)(O)C[C@@H](C)N(CCC)C[C@H](C)[C@@H](O)[C@](C)(O)[C@@H](CC)OC(=O)[C@@H]2C)C[C@@]1(C)OC [syzx-162]
1 ug/mi | 0.5 ug/mi | 4 ug/mi | 0.5 ug/mi | 0.5 ug/mi | CCCN1C[C@H](C)[C@@H](O)[C@](C)(O)[C@@H](CC)OC(=O)[C@H](C)[C@@H](O[C@H]2C[C@@](C)(OC)[C@](O)(CNCCc3ccncc3)[C@H](C)O2)[C@H](C)[C@@H](O[C@@H]2O[C@H](C)C[C@H](N(C)C)[C@H]2O)[C@](C)(O)C[C@H]1C [syzx-191]
0.5 ug/mi | 0.25 ug/mi | 2 ug/mi | 0.25 ug/mi | 0.5 ug/mi | CCCN1C[C@H](C)[C@@H](O)[C@](C)(O)[C@@H](CC)OC(=O)[C@H](C)[C@@H](O[C@H]2C[C@@](C)(OC)[C@](O)(CNc3cc(OC)cc(OC)c3)[C@H](C)O2)[C@H](C)[C@@H](O[C@@H]2O[C@H](C)C[C@H](N(C)C)[C@H]2O)[C@](C)(O)C[C@H]1C [syzx-176]

The next lines start with the molecule.

SMILES | MIC values, Staphylococcus aureus CVCC26003 [1] | MIC values, Streptococcus equines CVCC556 [2] | MIC values, Pasteurella multocida CVCC399 [3] | MIC values, Actinobacillus pleuropneumoniae CVCC262 [4] | MIC values, Haemophilus parasuis [5]
CCC1OC(=O)C(C)C(OC2CC(C)(OC)C(O)(CNCCCNC3CCCCC3)C(C)O2)C(C)C(OC2OC(C)CC(N(C)C)C2O)C(C)(O)CC(C)NCC(C)C(O)C1(C)O [syzx-60, (2R,3S,4R,5S,8R,10R,11R,12S,13S,14R)-13-[(2,6-dideoxy-3-C-methyl-3-O-methyl-4-C-[[(3-cyclohexylamino)propylamino]-methyl]-α-L-ribopyranosyl)oxy]-2-ethyl-3,4,10-trihydroxy-3,5,8,10,12,14-hexamethyl-11-[[3,4,6-trideoxy-3-(dimethylamino)-β-D-xylo-hexopyranosy]oxy]-1-oxa-7-azacyclopentadecan-15-one] | 1 ug/mi | 2 ug/mi | 2 ug/mi | 8 ug/mi | 1 ug/mi
CCCN1C[C@H](C)[C@@H](O)[C@](C)(O)[C@@H](CC)OC(=O)[C@H](C)[C@@H](O[C@H]2C[C@@](C)(OC)[C@](O)(CNCCCOCC)[C@H](C)O2)[C@H](C)[C@@H](O[C@@H]2O[C@H](C)C[C@H](N(C)C)[C@H]2O)[C@](C)(O)C[C@H]1C [syzx-122] | 1 ug/mi | 0.25 ug/mi | 1 ug/mi | 1 ug/mi | 0.5 ug/mi
CCCN1C[C@H](C)[C@@H](O)[C@](C)(O)[C@@H](CC)OC(=O)[C@H](C)[C@@H](O[C@H]2C[C@@](C)(OC)[C@](O)(CN(C)CCO)[C@H](C)O2)[C@H](C)[C@@H](O[C@@H]2O[C@H](C)C[C@H](N(C)C)[C@H]2O)[C@](C)(O)C[C@H]1C [syzx-126] | 4 ug/mi | 0.5 ug/mi | 2 ug/mi | 4 ug/mi | 4 ug/mi
CCCCCCNC[C@]1(O)[C@H](C)O[C@@H](O[C@H]2[C@H](C)[C@@H](O[C@@H]3O[C@H](C)C[C@H](N(C)C)[C@H]3O)[C@](C)(O)C[C@@H](C)N(CCC)C[C@H](C)[C@@H](O)[C@](C)(O)[C@@H](CC)OC(=O)[C@@H]2C)C[C@@]1(C)OC [syzx-115] | 0.25 ug/mi | 0.25 ug/mi | 0.5 ug/mi | 0.25 ug/mi | 0.25 ug/mi
CC[C@H]1OC(=O)[C@H](C)[C@@H](O[C@H]2C[C@@](C)(OC)[C@](O)(CNc3ccc4ncccc4c3)[C@H](C)O2)[C@H](C)[C@@H](O[C@@H]2O[C@H](C)C[C@H](N(C)C)[C@H]2O)[C@](C)(O)C[C@@H](C)NC[C@H](C)[C@@H](O)[C@]1(C)O [syzx-99, (2R,3S,4R,5S,8R,10R,11R,12S,13S,14R)-13-[(2,6-dideoxy-3-C-methyl-3-O-methyl-4-C-[(quinolin-6-yl-amino)-methyl]-α-L-ribopyranosyl)oxy]-2-ethyl-3,4,10-trihydroxy-3,5,8,10,12,14-hexamethyl-11-[[3,4,6-trideoxy-3-(dimethylamino)-β-D-xylo-hexopyranosy]oxy]-1-oxo-7-azacyclopentadecan-15-one] | 4 ug/mi | 2 ug/mi | 8 ug/mi | 128 ug/mi | 4 ug/mi
CC[C@H]1OC(=O)[C@H](C)[C@@H](O[C@H]2C[C@@](C)(OC)[C@](O)(CNC(C)C(C)(C)C)[C@H](C)O2)[C@H](C)[C@@H](O[C@@H]2O[C@H](C)C[C@H](N(C)C)[C@H]2O)[C@](C)(O)C[C@@H](C)NC[C@H](C)[C@@H](O)[C@]1(C)O (stereo partly drawn) [syzx-100, (2R,3S,4R,5S,8R,10R,11R,12S,13S,14R)-13-[(2,6-dideoxy-3-C-methyl-3-O-methyl-4-C-[(1,2,2-trimethyl-propylamino)-methyl]-α-L-ribopyranosyl)oxy]-2-ethyl-3,4,10-trihydroxy-3,5,8,10,12,14-hexamethyl-11-[[3,4,6-trideoxy-3-(dimethylamino)-β-D-xylo-hexopyranosy]oxy]-1-oxa-7-azacyclopentadecan-15-one] | 1 ug/mi | 2 ug/mi | 0.5 ug/mi | 1 ug/mi | 2 ug/mi
CCCN1C[C@H](C)[C@@H](O)[C@](C)(O)[C@@H](CC)OC(=O)[C@H](C)[C@@H](O[C@H]2C[C@@](C)(OC)[C@](O)(CNCCOC)[C@H](C)O2)[C@H](C)[C@@H](O[C@@H]2O[C@H](C)C[C@H](N(C)C)[C@H]2O)[C@](C)(O)C[C@H]1C [syzx-125] | 1 ug/mi | 0.25 ug/mi | 2 ug/mi | 0.5 ug/mi | 0.5 ug/mi
